In patent publication US10688093B2, “Methods, compositions, and uses of novel Fyn kinase inhibitors” (priority 2015, dated 2020) one finds IC50 data, which are given here for 45 compounds.

Broadly, the IC50 is the concentration at which inhibition is half-maximal.

Chain of full-length recombinant human FYN A (P06241 whole entry): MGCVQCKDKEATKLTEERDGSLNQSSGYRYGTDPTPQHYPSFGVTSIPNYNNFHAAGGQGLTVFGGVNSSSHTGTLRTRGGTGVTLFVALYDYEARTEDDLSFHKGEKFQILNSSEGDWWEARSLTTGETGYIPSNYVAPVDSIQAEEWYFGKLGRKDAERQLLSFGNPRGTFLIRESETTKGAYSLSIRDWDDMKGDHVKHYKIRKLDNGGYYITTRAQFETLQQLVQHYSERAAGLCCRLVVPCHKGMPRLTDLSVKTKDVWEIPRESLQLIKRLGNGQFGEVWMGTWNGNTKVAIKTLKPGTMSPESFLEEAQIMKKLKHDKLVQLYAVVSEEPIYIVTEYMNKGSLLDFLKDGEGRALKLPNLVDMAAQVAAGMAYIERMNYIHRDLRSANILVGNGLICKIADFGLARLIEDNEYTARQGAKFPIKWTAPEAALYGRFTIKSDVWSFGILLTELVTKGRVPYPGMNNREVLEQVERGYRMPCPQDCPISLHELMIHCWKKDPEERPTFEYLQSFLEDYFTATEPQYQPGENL

The target of the experiment is full-length recombinant human FYN A (Homo sapiens (Human), UniProt P06241). The experiment in a line: ADP-Glo Kinase Assay of FYN kinase inhibition. The experiment is classed as biochemical. The following applies: primary screen, initial compounds. In short, it runs like this:
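GST-tagged full-length FYN A (baculovirus, Sf9) at 3 pg preincubated 30 min RT with compound (10-point 3-fold series from 10 μM) in Tris pH 7.5/MgCl2 buffer. 12-mer tyrosine peptide plus 12.5 pmol ATP added, 90 min RT; ADP measured by ADP-Glo luminescence, IC50 from dose-response.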
(In general: ADP-Glo turns the ADP formed in a reaction into a luminescent signal.)
Regarding `COc1ccc(-c2cnc3ccc(-c4ccncc4)nn23)cc1OC` [Compound 395, 3-(3,4-dimethoxy-phenyl)-6-(4-pyridyl)imidazo [1,2-b]pyridazine], the IC50 stood at 0.404 µM.
Regarding `Oc1cccc(-c2cnc3ccc(-c4cccnc4)nn23)c1` [Compound 396, 3-[6-(3-pyridyl)imidazo [1,2-b]pyridazin-3-yl]phenol], the IC50 is 0.586 µM.
`Cn1cc(-c2ccc3ncc(-c4cccc(O)c4)n3n2)cn1` [Compound 397, 3-[6-(1-methylpyrazol-4-yl)imidazo[1,2-b]pyridazin-3-yl]phenol]: the IC50 is 0.388 µM.
For `OCc1ccc(-c2cnc3ccc(-c4ccc(F)cc4)nn23)cc1` [Compound 398, [4-[6-(4-fluorophenyl)imidazo[1,2-3]pyridazin-3-yl]phenyl] methanol] the value was 2.94 µM; for `COc1cc(-c2cnc3ccc(-c4cccc(O)c4)nn23)ccc1O` [Compound 399, 4-[6-(3-hydroxyphenyl)imidazo[1,2-b]pyridazin-3-yl]-2-methoxy-phenol], 0.295 µM; for `COc1ccc(-c2ccc3ncc(-c4ccncc4)n3n2)cc1OC` [Compound 400, 6-(3,4-dimethoxy-phenyl)-3-(4-pyridyl)imidazo [1,2-b]pyridazine], 0.282 µM.
To `Fc1ccc(-c2ccc3ncc(-c4cccnc4)n3n2)cc1` [Compound 401, 6-(4-fluorophenyl)-3-(3-pyridyl)imidazo [1,2-b]pyridazine] belongs 2.78 µM; to `OCc1cccc(-c2ccc3ncc(-c4cccc(Cl)c4)n3n2)c1` [Compound 402, [3-[3-(3-chlorophenyl)imidazo[1,2-b]pyridazin-6-yl]phenyl] methanol], 9.82 µM; to `Oc1cccc(-c2cnc3ccc(-c4ccc(F)cc4)nn23)c1` [Compound 403, 3-[6-(4-fluorophenyl)imidazo[1,2-b]pyridazin-3-yl]phenol], 11.9 µM.
To `c1ccc(-c2cnc3ccc(-c4cccs4)nn23)cc1` [Compound 404, 3-phenyl-6-(2-thienyl)imidazo [1,2-b]pyridazine] belongs 1.97 µM.
In the case of `COc1ccc(-c2cnc3ccc(-c4cccnc4)nn23)cc1OC` [Compound 405, 3-(3,4-dimethoxy-phenyl)-6-(3-pyridyl)imidazo [1,2-b]pyridazine], the IC50 amounted to 0.549 µM.
For `CC(=O)Nc1cccc(-c2ccc3ncc(-c4cccc(O)c4)n3n2)c1` [Compound 406, N-[3-[3-(3-hydroxyphenyl)imidazo[1,2-b]pyridazin-6-yl]phenyl] acetamide], the IC50 stood at 1.65 µM.
For `COc1cc(-c2cnc3ccc(-c4ccc(CO)cc4)nn23)ccc1O` [Compound 407, 4-[6-[4-(hydroxymethyl)phenyl]imidazo [1,2-b]pyridazin-3-yl]-2-methoxy-phenol] the value was 0.125 µM; for `CNC(=O)c1cccc(-c2ccc3ncc(-c4ccc(OC)c(OC)c4)n3n2)c1` [Compound 408, 3-[3-(3,4-dimethoxyphenyl)imidazo[1,2-b]pyridazin-6-yl]-N-methyl-benzamide], 3.49 µM; for `CC(=O)Nc1cccc(-c2ccc3ncc(-c4ccncc4)n3n2)c1` [Compound 409, N-[3-[3-(4-pyridyl)imidazo [1,2-b]pyridazin-6-yl]phenyl] acetamide], 0.598 µM.
For `c1cncc(-c2cnc3ccc(-c4ccoc4)nn23)c1` [Compound 410, 6-(3-furyl)-3-(3-pyridyl)imidazo [1,2-b]pyridazine] the value was 2.35 µM; for `COc1ccc(-c2ccc3ncc(-c4cccc(NC(C)=O)c4)n3n2)cc1OC` [Compound 411, N-[3-[6-(3,4-dimethoxyphenyl)imidazo[1,2-p]pyridazin-3-yl]phenyl] acetamide], 0.259 µM; for `Oc1cccc(-c2cnc3ccc(-c4ccoc4)nn23)c1` [Compound 412, 3-[6-(3-furyl)imidazo[1,2-b]pyridazin-3-yl]phenol], 1.06 µM.
For `CC(=O)c1cccc(-c2cnc3ccc(-c4ccncc4)nn23)c1` [Compound 413, 1-[3-[6-(4-pyridyl)imidazo [1,2-b]pyridazin-3-yl]phenyl] ethanone] the value was 0.371 µM; for `Cc1cccc(Cc2ccc3ncc(-c4ccncc4)n3n2)c1` [Compound 414, 6-(m-tolylmethyl)-3-(4-pyridyl)imidazo [1,2-b]pyridazine], 0.977 µM; for `Fc1ccc(-c2ccc3ncc(-c4ccc5c(c4)OCO5)n3n2)cc1` [Compound 415, 3-(1,3-benzodioxol-5-yl)-6-(4-fluorophenyl) imidazo[1,2-b]pyridazine], 7.6 µM.
As to `COc1ccc(-c2ccc3ncc(-c4ccc(OC)c(OC)c4)n3n2)cc1OC` [Compound 416, 3,6-bis(3,4-dimethoxyphenyl) imidazo[1,2-b]pyridazine], the 50% inhibitory concentration (IC50) came out at 0.538 µM.
To `COc1ccccc1-c1ccc2ncc(-c3cccc(O)c3)n2n1` [Compound 417, 3-[6-(2-methoxyphenyl)imidazo[1,2-b]pyridazin-3-yl]phenol] belongs 2.74 µM; to `OCc1ccc(-c2cnc3ccc(-c4ccccc4)nn23)cc1` [Compound 418, [4-(6-phenylimidazo [1,2-b]pyridazin-3-yl)phenyl] methanol], 1.46 µM.
For `CC(=O)Nc1ccc(-c2ccc3ncc(-c4ccc(CO)cc4)n3n2)cc1` [Compound 419, N-[4-[3-[4-(hydroxymethyl)phenyl]imidazo [1,2-b]pyridazin-6-yl]phenyl] acetamide], the IC50 stood at 21.5 µM.
For `COc1cc(-c2cnc3ccc(-c4cccc(CO)c4)nn23)ccc1O` [Compound 420, 4-[6-[3-(hydroxymethyl)phenyl]imidazo [1,2-b]pyridazin-3-yl]-2-methoxy-phenol] the value was 0.102 µM.
In the case of `CC(=O)c1cccc(-c2cnc3ccc(-c4cccc(CO)c4)nn23)c1` [Compound 421, 1-[3-[6-[3-(hydroxymethyl)phenyl]imidazo [1,2-b]pyridazin-3-yl]phenyl] ethanone], the IC50 worked out at 0.179 µM.
To `COc1cc(-c2ccc3ncc(-c4cccs4)n3n2)ccc1O` [Compound 423, 2-methoxy-4-[3-(2-thienyl)imidazo[1,2-b]pyridazin-6-yl]phenol] belongs 0.694 µM; to `O=C(NCCO)c1cccc(-c2ccc3ncc(-c4ccccc4)n3n2)c1` [Compound 424, N-(2-hydroxyethyl)-3-(3-phenyl-imidazo[1,2-b]pyridazin-6-yl)benzamide], 13.9 µM.
To `c1ccc(Cc2ccc3ncc(-c4ccncc4)n3n2)cc1` [Compound 425, 6-benzyl-3-(4-pyridyl)imidazo [1,2-b]pyridazine] belongs 0.624 µM; to `NC(=O)c1ccc(-c2ccc3ncc(-c4cccnc4)n3n2)cc1` [Compound 426, 4-[3-(3-pyridyl)imidazo [1,2-b]pyridazin-6-yl]benzamide], 11.2 µM.
For `CC(=O)c1cccc(-c2cnc3ccc(-c4cccnc4)nn23)c1` [Compound 427, 1-[3-[6-(3-pyridyl)imidazo [1,2-b]pyridazin-3-yl]phenyl] ethanone] the value was 1.23 µM; for `COc1cccc(-c2ccc3ncc(-c4cccc(C(C)=O)c4)n3n2)c1` [Compound 428, 1-[3-[6-(3-methoxyphenyl)imidazo[1,2-b]pyridazin-3-yl]phenyl] ethanone], 1.78 µM.
`Fc1ccc(Cc2ccc3ncc(-c4ccncc4)n3n2)cc1` [Compound 429, 6-[(4-fluorophenyl)methyl]-3-(4-pyridyl)imidazo [1,2-b]pyridazine]: the IC50 came out at 1.45 µM.
To `Nc1cccc(-c2ccc3ncc(-c4ccc5c(c4)OCO5)n3n2)c1` [Compound 430, 3-[3-(1,3-benzodioxol-5-yl)imidazo[1,2-b]pyridazin-6-yl]aniline] belongs 0.843 µM; to `c1cc(-c2ccc3ncc(-c4ccc5c(c4)OCO5)n3n2)co1` [Compound 431, 3-(1,3-benzodioxol-5-yl)-6-(3-furyl) imidazo[1,2-b]pyridazine], 1.6 µM; to `COc1ccc(-c2ccc3ncc(-c4ccc(CO)cc4)n3n2)cc1OC` [Compound 432, [4-[6-(3,4-dimethoxyphenyl)imidazo[1,2-b]pyridazin-3-yl]phenyl] methanol], 3.94 µM.
Regarding `CN(C)CCNC(=O)c1cccc(-c2ccc3ncc(-c4ccc5c(c4)OCO5)n3n2)c1` [Compound 433, 3-[3-(1,3-benzodioxol-5-yl)imidazo[1,2-b]pyridazin-6-yl]-N-(2-dimethylamino-ethyl)benzamide], the IC50 came to 0.393 µM.
As for `CC(=O)Nc1cccc(-c2cnc3ccc(-c4ccc(F)c(Cl)c4)nn23)c1` [Compound 434, N-[3-[6-(3-chloro-4-fluoro-phenyl)imidazo [1,2-b]pyridazin-3-yl]phenyl] acetamide], the IC50 was found to be 0.525 µM.
For `OCc1ccc(-c2cnc3ccc(-c4cccc(O)c4)nn23)cc1` [Compound 435, 3-[3-[4-(hydroxymethyl)phenyl]imidazo [1,2-b]pyridazin-6-yl]phenol] the value was 1.14 µM; for `COc1ccc(-c2ccc3ncc(-c4cccc(CO)c4)n3n2)cc1OC` [Compound 436, [3-[6-(3,4-dimethoxyphenyl)imidazo[1,2-b]pyridazin-3-yl]phenyl] methanol], 0.749 µM.
To `CC(=O)c1cccc(-c2ccc3ncc(-c4cccc(C(C)=O)c4)n3n2)c1` [Compound 437, 1-[3-[3-(3-acetylphenyl)imidazo[1,2-b]pyridazin-6-yl]phenyl] ethanone] belongs 0.582 µM; to `CNc1ccc2ncc(-c3ccsc3)n2n1` [Compound 437_0074, N-methyl-3-(3-thienyl)imidazo [1,2-b]pyridazin-6-amine], 4.23 µM; to `CNc1ccc2ncc(-c3ccc(OC)c(OC)c3)n2n1` [Compound 437_0079, 3-(3,4-dimethoxyphenyl)-N-methyl-imidazo[1,2-b]pyridazin-6-amine], 1.24 µM.
For `CNc1ccc2ncc(-c3cccc(NC(C)=O)c3)n2n1` [Compound 437_0081, N-[3-[6-(methylamino)imidazo[1,2-b]pyridazin-3-yl]phenyl] acetamide] the value was 1.75 µM.
